Target: T1, HIV-1 protease (Human immunodeficiency virus type 1 group M subtype B, UniProt P04585)
T1 construct: The protease (or proteinase), consisting of only 99 amino acids, is among the smallest enzymes known
Assay: In vitro HIV protease inhibitory assay (HIV Protease FITC Assay)
Assay type: biochemical
Details: for inhibition at 0.123 µM: HIV-1 Dose 0.123 uM; for inhibition at 0.123 µM / inhibition at 0.37 µM / inhibition at 1.1 µM / inhibition at 3.3 µM / inhibition at 10 µM / inhibition at 30 µM / inhibition at 100 µM: read-out: HIV-1 Protease % Inhib; for inhibition at 0.37 µM: HIV-1 Dose 0.370 uM; for inhibition at 1.1 µM: HIV-1 Dose 1.100 uM; for inhibition at 3.3 µM: HIV-1 Dose 3.300 uM; for inhibition at 10 µM: HIV-1 Dose 10.000 uM; for inhibition at 30 µM: HIV-1 Dose 30.000 uM; for inhibition at 100 µM: HIV-1 Dose 100.000 uM; for Ki: read-out: HIV-1 FITC Ki
Outline: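 Percent inhibition was read as fluorescence after avidin-bead capture and filtration separated FITC cleavage product from biotinylated substrate. Enzyme and substrate reacted 1 h, RT, dark, at pH 5.5 (0.1 M sodium acetate, 1.0 M NaCl, 0.05% NP-40).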

Row | SMILES | inhibition at 0.123 µM [%] | inhibition at 0.37 µM [%] | inhibition at 1.1 µM [%] | inhibition at 3.3 µM [%] | inhibition at 10 µM [%] | inhibition at 30 µM [%] | inhibition at 100 µM [%] | Ki [nM]
1 | O=c1oc(CC(O)c2ccc(F)cc2)cc(O)c1C(c1ccccc1)C1CC1 (stereo not drawn) [Example 148, 3-(α-cyclopropylbenzyl)-4-hydroxy-6-(β-hydroxy-p-fluorophenethyl)-2H-pyran-2-one] | < 10 | 22.4 | 52 | 80.3 | 91.9 | 89.7 | 130 | 161
2 | O=c1oc(CC(O)c2ccc(Cl)cc2)cc(O)c1C(c1ccccc1)C1CC1 (stereo not drawn) [Example 149, 3-(α-cyclopropylbenzyl)-4-hydroxy-6-(β-hydroxy-p-chlorophenethyl)-2H-pyran-2-one] | < 10 | 19.7 | 46.9 | 73.5 | 98.5 | 103 | 117 | 267
3 | O=c1oc(CC(O)c2cccc(Cl)c2)cc(O)c1C(c1ccccc1)C1CC1 (stereo not drawn) [Example 150, 3-(α-cyclopropylbenzyl)-4-hydroxy-6-(β-hydroxy-m-chlorophenethyl)-2H-pyran-2-one] | < 10 | 13.3 | 25.4 | 54.1 | 75.2 | 91 | 113 | 
4 | O=c1oc(CC(O)c2ccccc2Cl)cc(O)c1C(c1ccccc1)C1CC1 (stereo not drawn) [Example 151, 3-(α-cyclopropylbenzyl)-4-hydroxy-6-(β-hydroxy-o-chlorophenethyl)-2H-pyran-2-one] | < 10 | < 10 | 19.1 | 39.8 | 70.1 | 88.4 | 113 | 
5 | O=c1oc(CC(O)c2ccoc2)cc(O)c1C(c1ccccc1)C1CC1 (stereo not drawn) [Example 152, 3-(α-cyclopropylbenzyl)-4-hydroxy-6-(2-(furan-3-yl)-2-hydroxyethyl)-2H-pyran-2-one] | < 10 | < 10 | 26.4 | 48.8 | 77.6 | 90.5 | 110 | 
6 | O=c1oc(CC(O)c2ccsc2)cc(O)c1C(c1ccccc1)C1CC1 (stereo not drawn) [Example 153, 3-(α-cyclopropylbenzyl)-4-hydroxy-6-(2-(thiophen-3-yl)-2-hydroxyethyl)-2H-pyran-2-one] | < 10 | 17.7 | 40.3 | 69 | 88.6 | 99.7 | 120 | 
7 | CCC(Cc1ccc(F)cc1)c1cc(O)c(C(c2ccccc2)C2CC2)c(=O)o1 (stereo not drawn) [Example 154, 3-(α-cyclopropylbenzyl)-4-hydroxy-6-(α-ethyl-p-flurorphenethyl)-2H-pyran-2-one] | 21.9 | 57.3 | 84.1 | 86.7 | 98.1 | 92.9 |  | 39
8 | CCC(Cc1ccc(Cl)cc1)c1cc(O)c(C(c2ccccc2)C2CC2)c(=O)o1 (stereo not drawn) [Example 155, 3-(α-cyclopropylbenzyl)-4-hydroxy-6-(α-ethyl-p-chlorophenethyl)-2H-pyran-2-one] | 27.6 | 46 | 79.9 | 92.8 | 97.2 | 93.5 | 111 | 66
9 | CCC(Cc1cccc(Cl)c1)c1cc(O)c(C(c2ccccc2)C2CC2)c(=O)o1 (stereo not drawn) [Example 156, 3-(α-cyclopropylbenzyl)-4-hydroxy-6-(α-ethyl-m-chlorophenethyl)-2H-pyran-2-one] | < 10 | 24.2 | 64.4 | 82.6 | 87.3 | 92.3 |  | 65
10 | CCC(Cc1ccccc1Cl)c1cc(O)c(C(c2ccccc2)C2CC2)c(=O)o1 (stereo not drawn) [Example 157, 3-(α-cyclopropylbenzyl)-4-hydroxy-6-(α-ethyl-o-chlorophenethyl)-2H-pyran-2-one] | < 10 | 17.6 | 42.2 | 69 | 83.5 | 84.9 |  | 
11 | CCC(Cc1ccc(Br)cc1)c1cc(O)c(C(c2ccccc2)C2CC2)c(=O)o1 (stereo not drawn) [Example 158, 3-(α-cyclopropylbenzyl)-4-hydroxy-6-(α-ethyl-p-bromophenethyl)-2H-pyran-2-one] | 15.7 | 44.2 | 70.5 | 87 | 100 | 96.1 | 115 | 55

From patent EP1203770A1 (priority 1992, dated 1994)
